Data taken from patent publication US9157074B2, “Beta-amylase, gene coding therefor and manufacturing method thereof” (Amano Enzyme Inc., priority 2008, dated 2015).
Entries after “also recorded” stand apart in the source; their conditions may differ.

What was measured:
[1] = test system: β-amylase; test: Effect of metal ion and inhibitor on β-amylase activity; assay type: biochemical, Bacillus flexus; conditions: 30° C., 30 minutes; for Relative activity: 1 mM metal ion or inhibitor, pH 5.0, not added = 100%; for effect on activity: 1 mM
Procedure: (§1) The activity of β-amylase was measured as follows. To 0.5 ml of 0.1M phosphate-HCl buffer solution (pH 5.0) containing 1% soluble starch and 10 mM calcium acetate, 0.5 ml of enzyme solution was added. The mixture was incubated at 37° C. for 30 minutes. Then, 2.5 ml of DNS solution (0.2% DNS, 80 mM NaOH, 0.2 M potassium sodium tartrate tetrahydrate) was added to the mixture so as to stop the reaction. After the reaction was stopped, the reaction mixture was boiled for five minutes, the absorbance was measured at the wavelength of 530 nm. The enzyme amount when the absorbance measured at the wavelength of 530 nm is 1 is defined as one unit.
To β-amylase in 0.1 M acetic acid-hydrochloric acid buffer solution (pH 5.0) containing 10 mM calcium acetate, 1 mM of various metal ions or inhibitor were added, respectively, treated at 30° C. for 30 minutes, and then the activity was measured by the above-mentioned β-amylase activity. The values were shown as the relative activity when the metal ion and inhibitor were not added is defined as 100%. The activity was inhibited by Cu ion, iodine acetic acid, PCMB, and SDS.

[2] = test system: β-amylase; test: Substrate specificity of β-amylase; assay type: biochemical, Bacillus flexus; conditions: for Relative activity (%): activity with respect to soluble starch = 100%, oligosaccharides 0.5%, 0.1 u/ml enzyme, 37° C., 30 minutes, maltose by HPLC; for substrate specificity (words): relative to soluble starch = 100%
Procedure: as §1
The β-amylase activity with respect to each substrate was examined. The values are shown as the relative activity when the activity with respect to soluble starch is defined as 100%. As to oligosaccharides, the production amount of maltose was examined by the below-mentioned quantification amount of maltose. After 0.1 u/ml enzyme was reacted to 0.5% of each maltooligosaccharide at 37° C. for 30 minutes, quantification of maltose was carried out by HPLC (Aminex carbohydrate HPX-42A, BIO-RAD). A production amount of maltose when the substrate is soluble starch is defined as 100%, the relative activity with respect to each maltooligosaccharide was calculated from the production amount of maltose.
The values were shown as the relative activity when a production amount of maltose with respect to soluble starch is defined as 100%.

[3] = β-amylase specific activity at each purification stage; assay type: biochemical
Procedure: as §1
Bacillus flexus APC9451 was cultured with shaking at 30° C. for three days by using a liquid medium having the compositions shown in Table 1. The obtained culture supernatant solution was four-times concentrated by using an UF membrane (AIP-0013, Asahi Kasei Corporation), and then ammonium sulfate was added thereto so as to obtain 60% saturation concentration. The precipitate fraction was dissolved again in 20 mM acetic acid buffer solution (pH 5.5). Then, to the mixture solution, ammonium sulfate was added so as to obtain 20% saturation concentration. […]

[4] = Optimum reaction temperature of β-amylase; assay type: biochemical; conditions: pH 5.0, reaction temperatures 25 to 70° C.
Procedure: as §1
According to the above-mentioned β-amylase activity measurement method, reaction was carried out at the reaction temperatures of 25° C., 37° C., 50° C., 55° C., 60° C., 65° C., and 70° C. […] The optimum reaction temperature was around 55° C. (FIG. 1).

[5] = Optimum reaction pH of β-amylase; assay type: biochemical; conditions: 1% soluble starch, 37° C., 10 minutes; citric acid buffer pH2-4, Britton-Robinson buffer pH4-11
Procedure: For the substrate, 1% soluble starch was used, and the measurement was carried out in each buffer solution (citric acid buffer: pH2, pH3, and pH4, Britton-Robinson buffer: pH4, pH5, pH6, pH7, pH8, pH9, pH10, and pH11) at 37° C. for 10 minutes. […] The optimum reaction pH was about 8.0 (FIG. 2).

[6] = Thermostability (remaining activity after heat treatment); assay type: physicochemical
Procedure: as §1
The enzyme solution (20 u/ml) was subjected to heat treatment in 0.1 M acetic acid-hydrochloric acid buffer solution (pH 5.0) containing 10 mM calcium acetate at each temperature of 37° C., 50° C., 55° C., 60° C., 65° C. and 70° C. for 10 minutes, and then the remaining activity was measured by the above-mentioned β-amylase activity measurement method. The values are shown as the remaining activity when the remaining activity with no heat treatment is defined as 100%. […] (FIG. 3).

[7] = pH stability; assay type: physicochemical; conditions: pH 4 to 9, 30° C., three hours
Procedure: as §1
β-amylase was treated in each of the buffer solutions (citric acid buffer: pH2, pH3, and pH4, Britton-Robinson buffer: pH4, pH5, pH6, pH7, pH8, pH9, pH10, and pH11) at 30° C. for three house, and then the activity was measured by the above-mentioned β-amylase activity measurement method. […] The […] was 4 to 9 (FIG. 4).

[8] = Isoelectric point by isoelectric point precipitation using Ampholine; assay type: physicochemical; conditions: 600V, 4° C., 48 hours
Procedure: When the isoelectric point of the present enzyme was measured by isoelectric point precipitation using Ampholine (electrification at 600V, at 4° C., for 48 hours), it was 9.7.

Row | Molecule | Relative activity [1] | Relative activity (%) [2] | also measured
1 | [Ca+2] [Ca^2+] | 130% |  | 
2 | [Cu+2] [Cu^2+] | 46% |  | effect on activity [1]: inhibited
3 | [Fe+2] [Fe^2+] | 105% |  | Relative activity ([1]; listed as Fe^3+): 113%
4 | [K+] [K^+] | 96% |  | 
5 | OC[C@H]1O[C@H](O[C@H]2[C@H](O)[C@@H](O)[C@@H](O[C@H]3[C@H](O)[C@@H](O)[C@@H](O[C@H]4[C@H](O)[C@@H](O)C(O)O[C@@H]4CO)O[C@@H]3CO)O[C@@H]2CO)[C@H](O)[C@@H](O)[C@@H]1O (stereo partly shown) [Maltotetraose] |  | 75% | 
6 | [Mg+2] [Mg^2+] | 103% |  | 
7 | [Mn+2] [Mn^2+] | 222% |  | 
8 | CCN1C(=O)C=CC1=O [N-ethylmaleimide] | 93% |  | 
9 | [Na+] [Na^+] | 88% |  | 
10 | O=C(O)c1cc[c]([Hg][Cl])cc1 [PCMB] | 25% |  | effect on activity [1]: inhibited
11 | CCCCCCCCCCCCOS(=O)(=O)[O-].[Na+] [SDS] | 37% |  | effect on activity [1]: inhibited
12 | [Zn+2] [Zn^2+] | 96% |  | 
13 | O=C(O)CI [monoiodoacetic acid] | 14% |  | effect on activity [1]: inhibited
14 | OC[C@H]1O[C@@H]2O[C@H]3[C@H](O)[C@@H](O)[C@@H](O[C@H]4[C@H](O)[C@@H](O)[C@@H](O[C@H]5[C@H](O)[C@@H](O)[C@@H](O[C@H]6[C@H](O)[C@@H](O)[C@@H](O[C@H]7[C@H](O)[C@@H](O)[C@@H](O[C@H]1[C@H](O)[C@H]2O)O[C@@H]7CO)O[C@@H]6CO)O[C@@H]5CO)O[C@@H]4CO)O[C@@H]3CO [α-cyclodextrin] |  | 0% | 
15 | OC[C@H]1O[C@@H]2O[C@H]3[C@H](O)[C@@H](O)[C@@H](O[C@H]4[C@H](O)[C@@H](O)[C@@H](O[C@H]5[C@H](O)[C@@H](O)[C@@H](O[C@H]6[C@H](O)[C@@H](O)[C@@H](O[C@H]7[C@H](O)[C@@H](O)[C@@H](O[C@H]8[C@H](O)[C@@H](O)[C@@H](O[C@H]1[C@H](O)[C@H]2O)O[C@@H]8CO)O[C@@H]7CO)O[C@@H]6CO)O[C@@H]5CO)O[C@@H]4CO)O[C@@H]3CO [β-cyclodextrin] |  | 1.4% | 
16 | OC[C@H]1O[C@@H]2O[C@H]3[C@H](O)[C@@H](O)[C@@H](O[C@H]4[C@H](O)[C@@H](O)[C@@H](O[C@H]5[C@H](O)[C@@H](O)[C@@H](O[C@H]6[C@H](O)[C@@H](O)[C@@H](O[C@H]7[C@H](O)[C@@H](O)[C@@H](O[C@H]8[C@H](O)[C@@H](O)[C@@H](O[C@H]9[C@H](O)[C@@H](O)[C@@H](O[C@H]1[C@H](O)[C@H]2O)O[C@@H]9CO)O[C@@H]8CO)O[C@@H]7CO)O[C@@H]6CO)O[C@@H]5CO)O[C@@H]4CO)O[C@@H]3CO [γ-cyclodextrin-, γ-cyclodextrin] |  | 0.6% | 
17 | Maltoheptaose |  | 111% | 
18 | Maltohexaose |  | 131% | 
19 | Maltopentaose |  | 102% | 
20 | Maltotriose |  | 0% | substrate specificity (words) [2]: did not act; also recorded: does not substantially act
21 | cyclodextrin |  |  | substrate specificity (words) [2]: does not substantially act; substrate specificity (words) ([2]; listed as Cyclodextrin): almost broken down
22 | β-amylase: purified β-amylase from Bacillus flexus APC9451, amino acid sequence SEQ ID NO: 7; final HiLoad 16/60 Superdex200 stage (protein, listed as Bacillus flexus) MYKPIKKFASLIVLLSFVAAFILGPTNSQAAVNGQSFNSNYKTYLMAPLKKVTEFTTWEAFENDLRKAKQNGFYAVTVDFWWGDMEKNGDQQFDFSYAQRFAQAARNAGIKMVPIISTHQCGGNVGDDCNTPLPSWIWNTKTDDSLYFKSETGTVNKETVNPLATDVITKQYGELYTAFAQALAPYKDVIPKVYLSGGPAGELRYPSYTAADGTGYPSRGKFQAYTDFAKSKFQMWAVNKYGSLAGVNQAWGLSLTSTSQILPPSDGNQFLKDGYNTNYGKDFLEWYQGVLQDHAKRIGALAHQAFDPVFNVPVGAKIAGIHWQYNNPTMPHAAEKPAGYNNYSTLLDSFKTAKLDLTFTCLEMVDSGTYPEYSMPKTLVKEVASLANAKGIVLNGENALSIGSEEQYKRAAEMTFNYNFAGFTLLRFYDVINNSTRMSQFNQHLNIKPVAQTMVVKNAPTSSGESVYIVGDRPELGQWDTIAYPIKLSYNSTYGDWRGTVNFPADRSVQFKAIIKRSDGSLKSWQPTQQYWNVPGTPTTYTNNW |  |  | specific activity in the final stage as compared with that of the crude enzyme ([3]; final purification stage vs crude enzyme): 2270 times; Specific activity ([3]; purification stage of β-amylase from Bacillus flexus APC9451): 1569 u/mg; optimum reaction temperature [4]: around 55 °C; optimum reaction temperature ([4]; listed as the present enzyme): about 55 °C; optimum reaction pH [5]: about 8.0; remaining activity after heat treatment ([6]; 55° C., 10 minutes, 0.1 M acetic acid-hydrochloric acid buffer pH 5.0, 10 mM calcium acetate, no heat treatment = 100%): ≥ 90%; thermostability (temperature until which stable) ([6]; pH 5.0, 10 minutes): ≤ 55 °C; activity with respect to the maximum activity after treatment [7]: ≥ 70%; isoelectric point [8]: 9.7
